These are literature values, as cited in publication PMC9963398, “Discovery of New Quinolone-Based Diarylamides as Potent B-RAF^V600E/C-RAF Kinase Inhibitors Endowed with Promising In Vitro Anticancer Activity” (International Journal of Molecular Sciences, 2023).

What is called GI50 is the concentration giving 50% growth inhibition.

In one data set the test system is RPMI-8226. Also on record: method as in PMID 32745753. The following applies: RPMI-8226, Leukemia; cited from earlier work.
The next data set relates to HOP-92. Also on record: method as in PMID 32745753. The following applies: HOP-92, NSCL cancer; cited from earlier work.
Another data set has as its system SF-268. Also on record: method as in PMID 32745753. Particulars: SF-268, CNS cancer; cited from earlier work.
The subject of the next data set is MDA-MB-231/ATCC. The following applies: Breast cancer; cited from earlier work.
The test system of another data set is KM12. The arrangement: method as in PMID 32745753. The following applies: KM12, Colon cancer; cited from earlier work.
The test system of the next data set is MOLT-4. The arrangement: method as in PMID 32745753. Particulars: MOLT-4, Leukemia; cited from earlier work.
The subject of the next data set is MALME-3M. Also on record: method as in PMID 32745753. Particulars: Melanoma; cited from earlier work.
The subject of the next data set is A498. Also on record: method as in PMID 32745753. Particulars: A498, Renal cancer; cited from earlier work.
A further data set concerns SNB-75. Also on record: method as in PMID 32745753. The following applies: SNB-75, CNS cancer; cited from earlier work.
Another data set relates to NCI-H23. The arrangement: method as in PMID 32745753. The following applies: NCI-H23, NSCL cancer; cited from earlier work.
The test system of a further data set is HCC-2998. The arrangement: method as in PMID 32745753. The following applies: HCC-2998, Colon cancer; cited from earlier work.
The test system of the next data set is NCI-H460. Also on record: method as in PMID 32745753. The following applies: NCI-H460, NSCL cancer; cited from earlier work.

Molecules are shown by their SMILES.

In the case of `CNC(=O)c1cc(Oc2ccc(NC(=O)Nc3ccc(Cl)c(C(F)(F)F)c3)cc2)ccn1` [Sorafenib], the GI50 with RPMI-8226 is 1500 nM; with HOP-92 it was 1600 nM; with SF-268 it was 2500 nM; with MDA-MB-231/ATCC, 1300 nM; in the data set on KM12, 1600 nM; in the data set with MOLT-4 it was 2900 nM. The GI50 was 2200 nM with MALME-3M; 2300 nM in the data set with A498; 3000 nM in the data set on SNB-75; 1800 nM in the data set with NCI-H23; 3000 nM in the data set with HCC-2998; 2300 nM in the data set with NCI-H460.
